Test results taken from the NIST ThermoML archive (doi:10.1021/je101361u).

Assay: xn = mol fraction of the nth substance listed
Conditions: 101.3 kPa, Liquid, Vibrating tube method

CCOCCOCCOCC [diethylene glycol diethyl ether] + ClCCCl
mass density [kg/m3]
Conditions | 283.15 K | 288.15 K | 293.15 K | 298.15 K | 303.15 K | 308.15 K
x2 = 0.0234 | 920.54 | 915.7 | 910.83 | 905.98 | 901.12 | 896.25
x2 = 0.0504 | 925.19 | 920.3 | 915.41 | 910.52 | 905.62 | 900.73
x2 = 0.0751 | 929.56 | 924.64 | 919.72 | 914.8 | 909.87 | 904.95
x2 = 0.1009 | 934.31 | 929.36 | 924.39 | 919.44 | 914.47 | 909.51
x2 = 0.1504 | 943.66 | 938.64 | 933.61 | 928.58 | 923.55 | 918.52
x2 = 0.2 | 953.71 | 948.62 | 943.52 | 938.42 | 933.31 | 928.2
x2 = 0.2546 | 965.43 | 960.24 | 955.05 | 949.86 | 944.67 | 939.47
x2 = 0.2999 | 975.65 | 970.39 | 965.13 | 959.86 | 954.59 | 949.32
x2 = 0.35 | 987.75 | 982.41 | 977.05 | 971.69 | 966.34 | 960.97
x2 = 0.4006 | 1000.78 | 995.34 | 989.89 | 984.44 | 978.99 | 973.53
x2 = 0.4502 | 1014.42 | 1008.87 | 1003.32 | 997.77 | 992.22 | 986.66
x2 = 0.5002 | 1029.16 | 1023.52 | 1017.86 | 1012.21 | 1006.55 | –
x2 = 0.5499 | 1044.87 | 1039.11 | 1033.35 | 1027.58 | 1021.8 | –
x2 = 0.6 | 1061.87 | 1056 | 1050.12 | 1044.23 | 1038.33 | –
x2 = 0.65 | 1080.19 | 1074.19 | 1068.18 | 1062.16 | 1056.14 | –
x2 = 0.6999 | 1100.05 | 1093.92 | 1087.77 | 1081.63 | 1075.47 | –
x2 = 0.7492 | 1121.14 | 1114.87 | 1108.58 | 1102.29 | 1095.99 | –
x2 = 0.8 | 1145.22 | 1138.79 | 1132.34 | 1125.89 | 1119.42 | –
x2 = 0.85 | 1171.12 | 1164.52 | 1157.9 | 1151.27 | 1144.62 | –
x2 = 0.9 | 1199.76 | 1192.98 | 1186.17 | 1179.35 | 1172.51 | –
x2 = 0.95 | 1231.56 | 1224.58 | 1217.56 | 1210.52 | 1203.45 | –
x2 = 0.975 | 1248.9 | 1241.8 | 1234.66 | 1227.5 | 1220.32 | –
